Reference: a melting point compilation (Tetko et al.; mined from patent text by program, amines drawn as free bases though some values may be those of a salt)

Point of comparison: `N#Cc1c(N2CCN(C(=O)c3cccs3)CC2)c2cc(Cl)cnc2n(Cc2ccccc2)c1=O`, melting point 221 °C. Against it:
- CCOc1c(C(=O)OCC(C)(C)C(O)C(C)(C)C)oc2ccc(OC)cc12 (stereo not drawn) — lower, 100 to 101 °C
- Nc1ccc(NC(=O)Nc2cccc(C(F)(F)F)c2)c(O)c1 — lower, 200 to 202 °C
- CC(=O)C(Cc1cccc(Br)c1)NC(=O)c1ccc(C)cc1 (stereo not drawn) — lower, 106 to 107 °C
- CC1(C)[C@H](C(=O)OCc2cnc(Cc3ccccc3)s2)[C@@H]1C=C(Br)Br — lower, 66 °C
- O=c1cc(-c2ccccc2)oc2cc(OCCCCCCN3CCCCC3)cc(O)c12 — lower, 103 °C
- NC(=O)c1cccc(OCCOC2CCNCC2)c1 — lower, 144 to 146 °C
- N#CC(Cl)CS(=O)(=O)c1ccc(OC(F)(F)C(Cl)Cl)cc1 (stereo not drawn) — lower, 109 °C
- Cc1ccc(N(C#N)C(=O)CCCCC(=O)N(C#N)c2ccc(C)cc2C)c(C)c1 — lower, 120 to 122 °C
- COc1ccc(S(=O)(=O)CC(=O)C(C)C)cc1 — lower, 48 to 49.5 °C
- Cc1cc(Cl)c2[nH]nc(C)c2n1 — lower, 176 to 178 °C
- CCCCCCCNC(=O)Nc1ccc(N(C)C)cc1C(=O)NCC1CC2CCC(C1)N2C(c1ccccc1)c1ccccc1 (stereo not drawn) — lower, 195 °C
- O=C(C1CCC1)N1C[C@@H](c2c[nH]c3ccccc23)[C@H](c2cn3c4c(cccc24)CCC3)C1 — higher, 253 to 255 °C
- Clc1ccc(Nc2nc(-c3nccc4ccccc34)nc3ccccc23)cc1 — higher, 279 to 280 °C
- OCCNc1nnc(-c2ccc(F)c(F)c2Nc2ccc(I)cc2F)o1 — lower, 100 to 103 °C
- CCOP(=O)(/C=C/c1cn(-c2ccccc2)nc1OCc1ccc(OCc2nc(-c3ccco3)oc2C)cc1)OCC — lower, 131 to 132 °C
- COC(=O)c1c(OC)ccc(NC(=O)C(F)(F)F)c1OC — lower, 112 to 113 °C
- CCOC(=O)c1cnn2c1c(OCCCN(C)C)nc1ccccc12 — lower, 78 to 81 °C
- O=C(Oc1ccccc1)N1CCN2C(=O)OC(Cc3ccccc3)(Cc3ccccc3)C2C1 (stereo not drawn) — lower, 140 to 141 °C
- COC(=O)c1nc2nc(C)c(C)c(S)n2n1 — lower, 206 to 207 °C
- CCOC(=O)c1[nH]c2cc(Br)c(Cl)cc2c1-c1ccccc1F — lower, 193 to 194 °C
- COc1cc2ncc(C#N)c(Nc3ccc4c(C)cc(=O)[nH]c4c3)c2cc1OC — higher, > 300 °C
- CCCCCCCNc1cccc(O)c1 — lower, 27 to 30 °C
- CC(C)COc1c(-c2ccc(S(N)(=O)=O)cc2)cnn(-c2ccc(F)c(F)c2)c1=O — lower, 169 to 171 °C
- CCC(=O)N1N=C(c2ccc([N+](=O)[O-])cc2)c2cc3c(cc2CC1C)OCO3 (stereo not drawn) — lower, 189 to 190 °C
- C/C(=C\c1ccc(C=O)cc1)c1ccc2c(c1)C(C)(C)CCC2(C)C — lower, 140 to 141 °C
- CN(C)C=CC(=O)c1cc(Cl)ccc1Cl — lower, 83 to 85 °C
- COc1ccc2ccc(N3C(=O)c4ccccc4C3OCC(=O)N3CCOCC3)nc2n1 (stereo not drawn) — lower, 192 °C
- COC(=O)c1ccc(C2C(C#N)=C(CC(C)C)NC(C)=C2C(=O)OC(C)(C)C)cc1 (stereo not drawn) — lower, 191 to 193 °C
- N#Cc1c(N2CCCCC2)cc(-c2cccs2)c2c1-c1ccccc1C2=O — lower, 172 to 174 °C
- N#CCOc1cccnc1N — lower, 100 to 101 °C
- CCc1cc2cc([N+](=O)[O-])ccc2s1 — lower, 55 °C
- COCOc1cc(C(C)(C)C)ccc1C(=O)O — lower, 72 °C
- CS(=O)c1ccc(-c2c(-c3ccncc3)nc3n2CCC3)cc1 (stereo not drawn) — lower, 180 to 182 °C
- O=C1Nc2ccccc2C12COc1ccc3c(c12)N(Cc1cccnc1)ON3 (stereo not drawn) — higher, 230 to 232 °C
- NS(=O)(=O)c1cc2ccc(O)cc2c(S(N)(=O)=O)c1-c1cccc(Cl)c1O — lower, 135 to 137 °C
- O=C1c2c(cc(O)c(Cl)c2Cl)CC1(c1ccccc1)c1ccccc1 — lower, 207 to 213 °C
- C#CCOc1cc(Oc2ccc(Cl)cc2)ncn1 — lower, 100 °C
- C#Cc1cccc(Nc2ncnc3cc4c(cc23)OCO4)c1 — higher, > 350 °C
- O=c1c2c([nH]n1-c1ccc(Cl)cc1F)CCCCC2 — lower, 197 to 201 °C
- CCOC(=O)C(=Cc1cc(C(=O)OCC)c(=O)n2ccccc12)C(=O)OCC — lower, 149 to 151 °C
- N#CCCNC(=O)c1cccc(-c2ccc(F)c3cc(Cc4cccc(C(F)(F)F)c4)oc23)c1 — lower, 158 to 159 °C
- COc1nc(OC)nc(-n2cnc(SC)n2)n1 — lower, 160 °C
- CC(C)(C)COC(=O)c1cc(Cl)c(F)c(Cl)c1F — lower, 38 to 42 °C
- O=C1C2CCC(N1c1ccc(F)cc1)n1c(=O)n(-c3ccccc3)c(=O)n12 (stereo not drawn) — lower, 167 to 168 °C
- CC(=O)c1cccnc1CN1C(=O)C(NC(=O)Nc2cccc(C)c2)N=C(c2ccccc2F)c2ccccc21 (racemic) — not separable, 218 to 222 °C
- COC(=O)c1ccc2nc3scc(C)c3c(=O)n2c1 — lower, 208 to 209 °C
- CC(C)CCNC1(c2ccccc2Cl)C(=O)Nc2ccc(Cl)cc21 (stereo not drawn) — lower, 152 °C
- c1ccc(N2CCN(c3nc4cccc5c4n3CCC5)CC2)cc1 — lower, 168 to 169 °C
- CCSC=C1C(=O)OC(C)(C)OC1=O — lower, 52 to 54 °C
- CCCCCC(=O)Nc1nc2c(ncn2CCC(CO)CO)c(=O)[nH]1 — lower, 86 to 88 °C
- CN(C)C(=O)N(C)c1nnc(C(C)(C)CCl)s1 — lower, 80 to 82 °C
- Oc1ccc2c(c1)C=C(n1ccnc1)CC2 — lower, 218 to 220 °C
- N#Cc1ccc(N2CCN(Cc3ccccc3)CC2)cc1 — lower, 104 to 105 °C
- CCN1CCC(=O)C(C(c2ccccc2)c2ccccc2)C1 (stereo not drawn) — lower, 54 to 58 °C
- COc1ccc(C(=O)c2c(-c3ccc(OC)cc3)sc3cc(OC)ccc23)cc1 — lower, 119 to 120 °C
- Cc1ncc2cc(-c3c(Cl)cccc3Cl)c(N)nc2n1 — higher, 287 to 289 °C
- CCCc1cc(C#N)sc1-c1ccc2c(c1)C(C)(C)OC(=O)N2 — lower, 160 to 162 °C
- OCC1OC(n2cnc3c(NCc4ccccc4Cl)ncnc32)C(O)C1O (stereo not drawn) — lower, 182 to 183 °C
- CCC(Cl)Cc1sc(O)nc1C (stereo not drawn) — lower, 84 to 85 °C
- C[C@@H](Nc1ncnc2cc(F)c([N+](=O)[O-])cc12)c1ccccc1 — lower, 203 °C
- COCC(C)Nc1nccc(Oc2ccc(NC(=O)c3cc(F)cc(N4CCCCC4)c3)c3ccccc23)n1 (stereo not drawn) — lower, 94 to 95 °C
- O=S1(=O)N=C2CCCN2c2ccc(Oc3cccc(-c4ccoc4)c3)cc21 — lower, 128 to 132 °C
- Fc1ccc2[nH]c3c(c2c1)CN(CCc1ccncc1)CC3 — higher, 233 to 235 °C
- COc1ccc(-n2c(=O)c(Cl)nc3cccnc32)cc1 — higher, > 300 °C
- COc1ccc(CN(C(=S)Nc2ccccc2)c2ccc(NNC(C)=O)cc2)cc1 — lower, 126 to 128 °C
- CCOC(=O)c1cc2c3cccc(OC)c3ncn2c1 — lower, 154 to 155 °C
- COc1ccc(CC(=O)NCC(OC)OC)cc1OC — lower, 60 to 63 °C
- CCOC=Nc1sccc1C#N — lower, 38 °C
- O=C1c2ccccc2C(=O)N1C(Cc1ccccc1)CP(=O)(O)O (stereo not drawn) — lower, 127 to 130 °C
- COc1ccc(-c2ccc(OC)cc2[N+](=O)[O-])c([N+](=O)[O-])c1 — lower, 134 to 137 °C
- CC(=O)Nc1ccccc1NC(=O)CN1C(=O)c2ccccc2C1=O — higher, 270 °C
- Cc1nn(-c2ccc(F)cc2)cc1C(=O)N(CCCC(=O)O)c1ccc(OCC(C)(C)C)c(C#N)c1 — lower, 178 to 180 °C
